According to patent US20060069132A1, “Azolecarboxamide herbicides” (priority 2004, published 2006):

Experiments:
barnyardgrass [1] = assay: Test A pre-/postemergence herbicide test; assay type: in vivo, Echinochloa crus-galli
In short: (§1)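 Visual injury scores on a 0–100 scale (100 = complete control) taken about ten days post-treatment in greenhouse against untreated controls; dash means no result. Treatments: preemergence soil spray and postemergence spray to runoff on one- to two-leaf plants 2 to 10 cm tall, surfactant-containing formulation.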

large crabgrass [2] = assay: Test A pre-/postemergence herbicide test; assay type: in vivo, Digitaria sanguinalis
In short: as §1

giant foxtail [3] = assay: Test A pre-/postemergence herbicide test; assay type: in vivo, Setaria faberi
In short: as §1

morningglory [4] = assay: Test A pre-/postemergence herbicide test; assay type: in vivo, Ipomoea spp.
In short: as §1

redroot pigweed = assay: Test A pre-/postemergence herbicide test; assay type: in vivo, Amaranthus retroflexus
In short: as §1

velvetleaf [5] = assay: Test A pre-/postemergence herbicide test; assay type: in vivo, Abutilon theophrasti
In short: as §1

barnyardgrass [6] = assay: Test B pre-/postemergence herbicide test; assay type: in vivo, Echinochloa crus-galli; settings: for Barnyardgrass plant response rating: postemergence
In short: (§2)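 Response was scored visually 13 to 15 days after treatment against untreated greenhouse controls, 0 meaning no effect and 100 complete control. Formulations (solvent mixture plus surfactant) went onto soil after planting, onto foliage of 1- to 4-leaf plants, and onto 2-leaf plants in a flooded paddy set including rice and barnyardgrass.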

Surinam grass = assay: Test B pre-/postemergence herbicide test; assay type: in vivo, Urochloa decumbens; settings: for Surinam Grass plant response rating: postemergence
In short: (§3)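 Test chemicals in a non-phytotoxic solvent mixture with surfactant were applied preemergence to seeded species and postemergence to plants 2-18 cm tall (1- to 4-leaf stage); rice and barnyardgrass were also tested in a flooded paddy at the 2-leaf stage. Visual rating versus controls after 13-15 days in greenhouse, scale 0 (no effect) to 100 (complete control).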

cocklebur = assay: Test B pre-/postemergence herbicide test; assay type: in vivo, Xanthium strumarium; settings: for Cocklebur plant response rating: postemergence
In short: as §2

corn = assay: Test B pre-/postemergence herbicide test; assay type: in vivo, Zea mays; settings: for Corn plant response rating: postemergence
In short: as §3

large crabgrass [7] = assay: Test B pre-/postemergence herbicide test; assay type: in vivo, Digitaria sanguinalis; settings: for Crabgrass, Large plant response rating: postemergence
In short: as §3

giant foxtail [8] = assay: Test B pre-/postemergence herbicide test; assay type: in vivo, Setaria faberi; settings: for Foxtail, Giant plant response rating: postemergence
In short: as §3

lambsquarters = assay: Test B pre-/postemergence herbicide test; assay type: in vivo, Chenopodium album; settings: for Lambsquarters plant response rating: postemergence
In short: as §3

morningglory [9] = assay: Test B pre-/postemergence herbicide test; assay type: in vivo, Ipomoea coccinea; settings: for Morningglory plant response rating: postemergence
In short: as §2

pigweed = assay: Test B pre-/postemergence herbicide test; assay type: in vivo, Amaranthus retroflexus; settings: for Pigweed plant response rating: postemergence
In short: as §3

rice [10] = assay: Test B pre-/postemergence herbicide test; assay type: in vivo, Oryza sativa; settings: 0 = no effect, 100 = complete control, preemergence
In short: as §3

velvetleaf [11] = assay: Test B pre-/postemergence herbicide test; assay type: in vivo, Abutilon theophrasti; settings: for Velvetleaf plant response rating: postemergence
In short: as §3

blackgrass = assay: Test B postemergence herbicide test; assay type: in vivo, Alopecurus myosuroides; settings: postemergence
In short: (§4)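 Visual control ratings, 0–100 versus untreated controls, taken after 13 to 15 days in the greenhouse. Blackgrass received a postemergence spray at the 1- to 4-leaf stage (2–18 cm); ducksalad, umbrella sedge and barnyardgrass were flooded-paddy treated at 2 leaves.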

wheat = assay: Test B postemergence herbicide test; assay type: in vivo, Triticum aestivum; design: key to Wheat plant response rating: 0 = no effect, 100 = complete control; settings: postemergence
In short: (§5)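 Formulated test chemicals went onto postemergence plants measuring 2 to 18 cm, at one to four leaves. For the paddy assay, species had reached two leaves. Scoring took place 13–15 days later by eye, relative to untreated plants, using 0 for no effect up to 100 for full control.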

wild oat = assay: Test B postemergence herbicide test; assay type: in vivo, Avena fatua; settings: postemergence
In short: as §5

rice [12] = assay: Test B flooded paddy test; assay type: in vivo, Oryza sativa; settings: 1000 g ai/ha, scale 0 to 100 (0 no effect, 100 complete control)
In short: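 Paddy species grown to the 2-leaf stage under flooding; blackgrass sprayed postemergence at 2–18 cm (1- to 4-leaf stage). Plants kept in a greenhouse for 13 to 15 days, then visually rated against controls on 0 (no effect) to 100 (complete control).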

[13] = system: small flower umbrella sedge; assay: Test B flooded paddy test; assay type: in vivo, Cyperus difformis; settings: 1000 g ai/ha, scale 0 to 100 (0 no effect, 100 complete control)
In short: as §4

ducksalad = assay: Test B flooded paddy test; assay type: in vivo, Heteranthera limosa; settings: 1000 g ai/ha, scale 0 to 100 (0 no effect, 100 complete control)
In short: as §4

barnyardgrass [14] = assay: Test B flooded paddy test; assay type: in vivo, Echinochloa crus-galli; settings: 1000 g ai/ha, scale 0 to 100 (0 no effect, 100 complete control)
In short: as §4

[15] = Postemergence, 500 g ai/ha, 0 to 100 scale, 0 no effect, 100 complete control
[16] = Postemergence, 2000 g ai/ha, 0 to 100 scale, 0 no effect, 100 complete control
[17] = Preemergence, 2000 g ai/ha, visual rating, 0 to 100 scale (0 no effect, 100 complete control)
[18] = preemergence, 500 g ai/ha, visual injury, 0 to 100 scale (0 no effect, 100 complete control)
[19] = 125 g ai/ha, 0 = no effect, 100 = complete control, preemergence
[20] = 500 g ai/ha, visual rating, 0 = no effect, 100 = complete control, preemergence
[21] = 125 g ai/ha, visual rating, scale 0 (no effect) to 100 (complete control)
[22] = 500 g ai/ha, scale 0 to 100, 0 is no effect, 100 is complete control

`CCn1nc(C(C)(C)C)cc1C(=O)Nc1cc(C(N)=O)ccc1F` [Compound 271] was tested, and the “Barnyardgrass plant response rating” value (barnyardgrass [1]; [15]) was 10, the “Plant response rating, Barnyardgrass” value (barnyardgrass [1]; [16]) was 30 and the “Barnyardgrass plant response rating” value (barnyardgrass [1]; [17]) was 75. The “Barnyardgrass plant response rating” value (barnyardgrass [1]; [18]) was 5, the “Crabgrass, Large plant response rating” value (large crabgrass [2]; [15]) was 10 and the “Plant response rating, Crabgrass, Large” value (large crabgrass [2]; [16]) was 10. The “Crabgrass, Large plant response rating” value (large crabgrass [2]; [17]) was 15, the “Crabgrass, Large plant response rating” value (large crabgrass [2]; [18]) was 0 and the “Foxtail, Giant plant response rating” value (giant foxtail [3]; [15]) was 10. The “Plant response rating, Foxtail, Giant” value (giant foxtail [3]; [16]) was 20, the “Foxtail, Giant plant response rating” value (giant foxtail [3]; [17]) was 70 and the “Foxtail, Giant plant response rating” value (giant foxtail [3]; [18]) was 0. The “Morningglory plant response rating” value (morningglory [4]; [15]) was 10, the “Plant response rating, Morningglory” value (morningglory [4]; [16]) was 30 and the “Morningglory plant response rating” value (morningglory [4]; [17]) was 0. For the same molecule, the “Morningglory plant response rating” value (morningglory [4]; [18]) was 0, the “Pigweed plant response rating” value (redroot pigweed; [15]) was 45 and the “Plant response rating, Pigweed” value (redroot pigweed; [16]) was 90. The “Pigweed plant response rating” value (redroot pigweed; [17]) was 60, the “Pigweed plant response rating” value (redroot pigweed; [18]) was 60 and the “Velvetleaf plant response rating” value (velvetleaf [5]; [15]) was 10. The “Plant response rating, Velvetleaf” value (velvetleaf [5]; [16]) was 40, the “Velvetleaf plant response rating” value (velvetleaf [5]; [17]) was 5 and the “Velvetleaf plant response rating” value (velvetleaf [5]; [18]) was 0. The “Barnyardgrass plant response rating (0 to 100 scale)” value (barnyardgrass [6]; [19]) was 0, the “Plant response rating, Barnyardgrass” value (barnyardgrass [6]; [20]) was 0 and the “Barnyardgrass plant response rating” value (barnyardgrass [6]; [21]) was 0. For the same molecule, the “Barnyardgrass plant response rating” value (barnyardgrass [6]; [22]) was 0, the “Surinam Grass plant response rating (0 to 100 scale)” value (Surinam grass; [19]) was 0 and the “Plant response rating, Surinam Grass” value (Surinam grass; [20]) was 0. The “Surinam Grass plant response rating” value (Surinam grass; [21]) was 0, the “Surinam Grass plant response rating” value (Surinam grass; [22]) was 0 and the “Cocklebur plant response rating (0 to 100 scale)” value (cocklebur; [19]) was 0. For the same molecule, the “Plant response rating, Cocklebur” value (cocklebur; [20]) was 0, the “Cocklebur plant response rating” value (cocklebur; [21]) was 0 and the “Cocklebur plant response rating” value (cocklebur; [22]) was 0. The “Corn plant response rating (0 to 100 scale)” value (corn; [19]) was 0, the “Plant response rating, Corn” value (corn; [20]) was 10 and the “Corn plant response rating” value (corn; [21]) was 0. The “Corn plant response rating” value (corn; [22]) was 20, the “Crabgrass, Large plant response rating (0 to 100 scale)” value (large crabgrass [7]; [19]) was 0 and the “Plant response rating, Crabgrass, Large” value (large crabgrass [7]; [20]) was 0. For the same molecule, the “Crabgrass, Large plant response rating” value (large crabgrass [7]; [21]) was 0, the “Crabgrass, Large plant response rating” value (large crabgrass [7]; [22]) was 0 and the “Foxtail, Giant plant response rating (0 to 100 scale)” value (giant foxtail [8]; [19]) was 0. For the same molecule, the “Plant response rating, Foxtail, Giant” value (giant foxtail [8]; [20]) was 0, the “Foxtail, Giant plant response rating” value (giant foxtail [8]; [21]) was 0 and the “Foxtail, Giant plant response rating” value (giant foxtail [8]; [22]) was 0. The “Lambsquarters plant response rating (0 to 100 scale)” value (lambsquarters; [19]) was 0, the “Plant response rating, Lambsquarters” value (lambsquarters; [20]) was 60 and the “Lambsquarters plant response rating” value (lambsquarters; [21]) was 10. For the same molecule, the “Lambsquarters plant response rating” value (lambsquarters; [22]) was 60, the “Morningglory plant response rating (0 to 100 scale)” value (morningglory [9]; [19]) was 0 and the “Plant response rating, Morningglory” value (morningglory [9]; [20]) was 0. The “Morningglory plant response rating” value (morningglory [9]; [21]) was 0, the “Morningglory plant response rating” value (morningglory [9]; [22]) was 0 and the “Pigweed plant response rating (0 to 100 scale)” value (pigweed; [19]) was 0. For the same molecule, the “Plant response rating, Pigweed” value (pigweed; [20]) was 20, the “Pigweed plant response rating” value (pigweed; [21]) was 50 and the “Pigweed plant response rating” value (pigweed; [22]) was 80. The “Rice plant response rating (0 to 100 scale)” value (rice [10]; 125 g ai/ha) was 0, the “Plant response rating, Rice” value (rice [10]; 500 g ai/ha, visual rating) was 0 and the “Velvetleaf plant response rating (0 to 100 scale)” value (velvetleaf [11]; [19]) was 0. For the same molecule, the “Plant response rating, Velvetleaf” value (velvetleaf [11]; [20]) was 0, the “Velvetleaf plant response rating” value (velvetleaf [11]; [21]) was 0 and the “Velvetleaf plant response rating” value (velvetleaf [11]; [22]) was 0. For the same molecule, the “Blackgrass plant response rating” value (blackgrass; [21]) was 10, the “Blackgrass plant response rating” value (blackgrass; [22]) was 20 and the “Wheat plant response rating” value (wheat; [21]) was 30. The “Wheat plant response rating” value (wheat; [22]) was 30, the “Oat, Wild plant response rating” value (wild oat; [21]) was 20 and the “Oat, Wild plant response rating” value (wild oat; [22]) was 30. The “Rice plant response rating” value (rice [12]) was 20, the “Sedge, Umbrella plant response rating” value [13] was 40 and the “Ducksalad plant response rating” value (ducksalad) was 40. The “Barnyardgrass plant response rating” value (barnyardgrass [14]) was 0.
